Reference: the supplement of paper PMC5908809

Legend:
SNK-6 (IL-2 2.5 ng/mL) [1] = experiment: percent inhibition of viability; higher = more inhibition; details: 72 h
NK-YS (IL-2 2.5 ng/mL) [2] = experiment: as above; details: 72 h
KHYG-1 (IL-2 2.5 ng/mL) [3] = experiment: as above; details: 72 h
NK-92 (IL-2 2.5 ng/mL) [4] = experiment: as above; details: 72 h
[5] = system: normal primary NK cells, pool 1 (3 donors) (IL-2 2.5 ng/mL); experiment: as above; details: 72 h
KAI3 (IL-2 2.5 ng/mL) [6] = experiment: as above; details: 72 h
DERL-7 (IL-2 2.5 ng/mL) [7] = experiment: as above; details: 72 h
[8] = system: normal primary NK cells, pool 3 (3 donors) (IL-2 2.5 ng/mL); experiment: as above; details: 72 h
IMC-1 (IL-2 20 ng/mL) [9] = experiment: as above; details: 72 h
[10] = system: normal primary NK cells, pool 2 (3 donors) (IL-2 2.5 ng/mL); experiment: as above; details: 72 h
NKL (IL-2 2.5 ng/mL) [11] = experiment: as above; details: 72 h
[12] = system: normal primary NK cells, pool 1 (3 donors), resting (IL-2 0 ng/mL); experiment: as above; details: 72 h
YT (IL-2 2.5 ng/mL) [13] = experiment: as above; details: 72 h
SNK-6 (IL-2 2.5 ng/mL) [14] = experiment: drug sensitivity score (DSS) (DSS units); higher = more sensitive; extreme values may be limits of the assay; details: 72 h
NK-YS (IL-2 2.5 ng/mL) [15] = experiment: as above; details: 72 h
KHYG-1 (IL-2 2.5 ng/mL) [16] = experiment: as above; details: 72 h
NK-92 (IL-2 2.5 ng/mL) [17] = experiment: as above; details: 72 h
[18] = system: normal primary NK cells, pool 1 (3 donors) (IL-2 2.5 ng/mL); experiment: as above; details: 72 h
KAI3 (IL-2 2.5 ng/mL) [19] = experiment: as above; details: 72 h
DERL-7 (IL-2 2.5 ng/mL) [20] = experiment: as above; details: 72 h
[21] = system: normal primary NK cells, pool 3 (3 donors) (IL-2 2.5 ng/mL); experiment: as above; details: 72 h
IMC-1 (IL-2 20 ng/mL) [22] = experiment: as above; details: 72 h
[23] = system: normal primary NK cells, pool 2 (3 donors) (IL-2 2.5 ng/mL); experiment: as above; details: 72 h
NKL (IL-2 2.5 ng/mL) [24] = experiment: as above; details: 72 h
[25] = system: normal primary NK cells, pool 1 (3 donors), resting (IL-2 0 ng/mL); experiment: as above; details: 72 h
YT (IL-2 2.5 ng/mL) [26] = experiment: as above; details: 72 h
[27] = system: normal NK cells expanded with K562-aAPC; experiment: percent inhibition of viability; higher = more inhibition; details: 72 h, IL-2 2.5 ng/mL
Experimental: (§1)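 Drug sensitivity and resistance testing on K562-aAPC-expanded normal NK cells: 5 concentrations (10-fold steps over a 10,000-fold range), 72 h at 37 °C, viability by CellTiter-Glo normalised to DMSO and benzethonium chloride controls; DSS from the fitted curve.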

[28] = system: normal NK cells expanded with K562-aAPC; experiment: drug sensitivity score (DSS) (DSS units); higher = more sensitive; extreme values may be limits of the assay; details: 72 h; IL-2 2.5 ng/mL
Experimental: as §1

O=C(/C=C\n1cnc(-c2cc(C(F)(F)F)cc(C(F)(F)F)c2)n1)NNc1cnccn1 [Selinexor] (max concentration tested 10000 nM)
percent inhibition of viability [%]
Details	1 nM	10 nM	100 nM	1000 nM	10000 nM
DERL-7 (IL-2 2.5 ng/mL) [7]	-2.69	16.9	59.3	89.7	99.2
IMC-1 (IL-2 20 ng/mL) [9]	-4.46	1.62	-10.9	86.9	100
KAI3 (IL-2 2.5 ng/mL) [6]	-3.28	4.63	52.6	93.7	106
KHYG-1 (IL-2 2.5 ng/mL) [3]	0.08	3.04	35.7	93.3	102
NK-92 (IL-2 2.5 ng/mL) [4]	-2.59	-2.77	33.9	90.6	101
NK-YS (IL-2 2.5 ng/mL) [2]	-3.45	3.74	39	77.4	95.4
NKL (IL-2 2.5 ng/mL) [11]	-4.23	11	42.8	76.3	87.8
SNK-6 (IL-2 2.5 ng/mL) [1]	-0.01	17.6	63.9	81.6	93.4
YT (IL-2 2.5 ng/mL) [13]	3.93	13.2	61.2	91.8	104
[5]	3.58	9.52	57.5	87.9	98.6
[8]	-6.17	1.79	59.1	88.1	99.8
[10]	-5.72	14.1	65.8	89.2	97.1
[12]	-3.27	25.6	77.9	87.5	93.1
[27]	4.95	27.1	55.3	96.5	101

Details	drug sensitivity score
DERL-7 (IL-2 2.5 ng/mL) [20]	25
IMC-1 (IL-2 20 ng/mL) [22]	15.5
KAI3 (IL-2 2.5 ng/mL) [19]	23.9
KHYG-1 (IL-2 2.5 ng/mL) [16]	21.3
NK-92 (IL-2 2.5 ng/mL) [17]	20.8
NK-YS (IL-2 2.5 ng/mL) [15]	19.4
NKL (IL-2 2.5 ng/mL) [24]	19.9
SNK-6 (IL-2 2.5 ng/mL) [14]	25.1
YT (IL-2 2.5 ng/mL) [26]	25.4
[18]	24.1
[21]	24.6
[23]	26
[25]	29
[28]	25.9
